Patent US11980596B2 (priority 2017, dated 2024)

What was measured:
[1] = test system: subjects with MDD at imminent risk for suicide; test: Study completion/withdrawal, double-blind phase ([…]2001); format: in vivo, human; details: esketamine 84 mg; all randomized analysis set, N = 36
Method: Of the 68 subjects in the all randomized analysis set, 19 (27.9%) subjects discontinued from the double-blind phase. More subjects in the esketamine 84 mg group discontinued due to adverse events (5 subjects in the esketamine 84 mg group versus 1 subject in the placebo group) whereas more subjects in the placebo group discontinued due to lack of efficacy (4 subjects in the placebo group versus 1 subject in the esketamine 84 mg group).

[2] = test system: rat; test: 2-year rat carcinogenicity study; format: in vivo; details: once-daily intranasal 4.5, 15 and 45 mg/kg/day; 2 years

CN[C@]1(c2ccccc2Cl)CCCCC1=O [esketamine, (S)-2-(2-chlorophenyl)-2-(methylamino)cyclohexanone]
Withdrawn from double-blind phase: Lack of Efficacy [1]: 1 (2.8%) subjects (%) | Incidence of tumors [2]: did not increase the incidence of tumors
